Key:
[1] = Agonist activity at human dopamine D3 receptor expressed in CHOp cells assessed as stimulation of mitogenesis incubated for 24 hrs by [3H]thymidine incorporation assay
[2] = Antagonist activity at human dopamine D2 receptor expressed in CHOp cells assessed as inhibition of quinpirol-induced mitogenesis incubated for 24 hrs by [3H]thymidine incorporation assay
[3] = Antagonist activity at human dopamine D3 receptor expressed in CHOp cells assessed as inhibition of quinpirol-induced mitogenesis incubated for 24 hrs by [3H]thymidine incorporation assay

| SMILES | EC50 [1] [nM] | IC50 [2] [nM] | IC50 [3] [nM] |
| --- | --- | --- | --- |
| Oc1cccc(CCN(CCc2ccccc2)CC2CC2)c1 | 32 | – | – |
| CCCCCCN(CCc1ccccc1)CCc1cccc(O)c1 | – | 1250 | – |
| CCCN(CCc1ccccc1)CCc1cccc(O)c1 | 5.3 | – | – |
| Oc1cccc(CCN(CCc2ccccc2)CC2CCC2)c1 | > 10000 | 1650 | 953 |

— BindingDB's records for doi:10.1021/jm301258w (University of Innsbruck, 2012)
